Measured values taken from the supplement of paper PMC10307832.

Assays:
Assay in all cases: relative viability (nuclei count vs DMSO), 5 days (fraction); higher = more cells survive
[1] = compound: CC[C@@H](C)CNCC(=O)N1CCC2=C([C@@H]1COC3=CC=CC(=C3)C)C=CS2 [RU-SKI 43] + O=C(c1cc(Cc2n[nH]c(=O)c3ccccc23)ccc1F)N1CCN(C(=O)C2CC2)CC1 [Olaparib] (partner 8 µM)
In short: (§1)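 Lung cancer cell lines were pin-tool dosed in 1536-well plates on the day after seeding, with either a lone drug or a fixed anchor-drug dose plus five library-drug doses (not always all listed) in √10 steps. Nuclei were counted on 4× images after 5 days. Relative viability is the ratio of treated-well to vehicle-well nuclei counts, with each value a median of duplicate plates.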

[2] = compound: CCc1c2c(nc3ccc(OC(=O)N4CCC(N5CCCCC5)CC4)cc13)-c1cc3c(c(=O)n1C2)COC(=O)[C@]3(O)CC [Irinotecan] + CS(=O)(=O)N1CCN(Cc2cc3nc(-c4cccc5[nH]ncc45)nc(N4CCOCC4)c3s2)CC1 [Pictilisib] (partner 1 µM)
In short: as §1

[3] = compound: CCc1c2c(nc3ccc(OC(=O)N4CCC(N5CCCCC5)CC4)cc13)-c1cc3c(c(=O)n1C2)COC(=O)[C@]3(O)CC [Irinotecan] + Cc1nc(Nc2ncc(C(=O)Nc3c(C)cccc3Cl)s2)cc(N2CCN(CCO)CC2)n1 [Dasatinib] (partner 0.075 µM)
In short: as §1

[4] = compound: CCc1c2c(nc3ccc(OC(=O)N4CCC(N5CCCCC5)CC4)cc13)-c1cc3c(c(=O)n1C2)COC(=O)[C@]3(O)CC [Irinotecan] + NC(=O)Nc1cc(-c2cccc(F)c2)sc1C(=O)N[C@H]1CCCNC1 [AZD7762] (partner 0.2 µM)
In short: as §1

Cell Line	relative viability ([1]; first compound 0.1 µM)	relative viability ([1]; first compound 0.3162 µM)	relative viability ([1]; first compound 1 µM)	relative viability ([1]; first compound 3.162 µM)	relative viability ([1]; first compound 10 µM)	relative viability ([2]; first compound 2 µM)	relative viability ([2]; first compound 6.325 µM)	relative viability ([2]; first compound 20 µM)	relative viability ([3]; first compound 2 µM)	relative viability ([3]; first compound 6.325 µM)	relative viability ([3]; first compound 20 µM)	relative viability ([4]; first compound 0.6325 µM)	relative viability ([4]; first compound 2 µM)	relative viability ([4]; first compound 6.325 µM)	relative viability ([4]; first compound 20 µM)	relative viability ([2]; first compound 0.6325 µM)	relative viability ([3]; first compound 0.6325 µM)
201T	0.835	0.888	0.843	0.858	0.836	0.738	0.36	0.346	0.552	0.529	0.36	0.456	0.416	0.345	0.266		
A549	0.362	0.462	0.277	0.278	0.291	0.452	0.139	0.0724								0.502	
A-427	0.707	0.759	0.68	0.752	0.626	0.392	0.19	0.225	0.535	0.211	0.16	0.712	0.642	0.315	0.18		
ABC-1	0.714	0.786	0.908	0.926	0.705	0.556	0.424	0.112	0.675	0.444	0.203		0.718	0.308	0.422		
BEN	1.16	1.2	1.09	1.09	1.07	0.461	0.253	0.349	0.331	0.199	0.252	0.55	0.677	0.447	0.472	0.508	0.238
CAL-12T	0.709	0.804	0.855	0.666	0.698	0.396	0.443	0.327	0.513	0.29	0.095	0.676	0.564	0.453	0.29	0.4	
COR-L23	0.333	0.403	0.377	0.325	0.359	0.363	0.228	0.0867	0.272	0.239	0.0978					0.338	0.271
COR-L 105	0.658	0.57	0.815	0.683	0.603	0.515	0.411	0.231	0.42	0.333	0.182					0.309	0.376
Calu-6	0.555	0.621	0.622	0.615	0.499	0.417	0.219	0.0958								0.573	
ChaGo-K-1	0.391	0.446	0.413	0.403	0.383	0.645	0.523	0.161	0.474	0.236	0.178	0.584	0.542	0.27	0.204		0.351
EBC-1	0.817	0.883	0.759	0.729	0.642	0.301	0.315	0.131								0.29	
EKVX	0.716	0.971	0.866	1.04	0.849	0.421	0.224	0.163	0.457	0.387	0.3		0.632	0.426	0.246	0.503	
EMC-BAC-2	0.476	0.495	0.54	0.487	0.486	0.373	0.234	0.223	0.324	0.215	0.304	0.942	0.696	0.327	0.287	0.37	0.292
EPLC-272H	0.597	0.648	0.813	0.697	0.64	0.305	0.188	0.195	0.296	0.15	0.265		0.234	0.133	0.137	0.212	0.146
H3255	0.579	0.594	0.572	0.574	0.529	0.272	0.222	0.23	0.292	0.358	0.387	0.713	0.611	0.354	0.388	0.302	0.443
HARA	0.822	0.735	0.754	0.894	0.923	0.104	0.161	0.0982	0.188	0.114	0.121	0.2	0.278	0.154	0.255	0.189	0.109
HCC-15	0.71	0.874	0.755	0.772	0.627	0.286	0.137	0.167	0.523	0.196	0.123	1.09	1.08	0.609	0.22	0.186	
HCC-44	0.984	0.981	1.06	1.06	0.954	0.438	0.221	0.404				0.909	1.03	0.798	0.486	0.657	
HCC-78	0.849	1.02	0.767	0.868	0.856	0.172	0.149	0.158	0.384	0.214	0.24	0.629	0.666	0.392	0.302	0.276	0.394
HCC-366	0.307	0.464	0.314	0.424	0.31	0.142	0.0733	0.0469	0.429	0.0758	0.0603	0.182	0.138	0.0668	0.0622	0.181	0.362
HCC-827	0.614	0.733	0.659	0.72	0.669	0.59	0.548	0.388	0.219	0.247	0.227	0.201	0.193	0.203	0.182	0.878	0.459
HOP-62	0.322	0.235	0.223	0.511	0.436	0.261	0.13	0.269	0.589	0.276	0.201	0.211	0.316	0.236	0.161	0.239	0.549
IA-LM	0.877	0.87	0.976	0.732	0.812	0.234	0.265	0.116								0.367	

Cell Line	relative viability ([1]; first compound 0.1 µM)	relative viability ([1]; first compound 0.3162 µM)	relative viability ([1]; first compound 1 µM)	relative viability ([1]; first compound 3.162 µM)	relative viability ([1]; first compound 10 µM)	relative viability ([2]; first compound 2 µM)	relative viability ([2]; first compound 6.325 µM)	relative viability ([2]; first compound 20 µM)	relative viability ([3]; first compound 2 µM)	relative viability ([3]; first compound 6.325 µM)	relative viability ([3]; first compound 20 µM)	relative viability ([4]; first compound 0.6325 µM)	relative viability ([4]; first compound 2 µM)	relative viability ([4]; first compound 6.325 µM)	relative viability ([4]; first compound 20 µM)	relative viability ([2]; first compound 0.6325 µM)	relative viability ([3]; first compound 0.6325 µM)
LC-2-ad	0.697	0.774	0.771	0.712	0.677	0.315	0.231	0.116	0.437	0.184	0.204	0.446	0.567	0.272	0.17	0.146	0.286
LCLC-97TM1	0.408	0.347	0.535	0.446	0.416	0.219	0.167	0.279	0.589	0.121	0.132	0.0915	0.143	0.105	0.116	0.12	0.711
LCLC-103H	0.748	0.865	0.882	0.829	0.816	0.51	0.331	0.408	0.439	0.324	0.275	0.458	0.682	0.497	0.4	0.406	0.413
LK-2	0.808	0.639	0.788	0.612	0.75	0.58	0.34	0.294	0.298	0.249	0.287	0.316	0.388	0.222	0.281	0.558	0.251
LOU-NH91	0.908	0.94	0.973	0.926	0.879	0.518	0.409	0.35	0.548	0.31	0.361	0.719	0.756	0.421	0.156	0.517	0.525
NCI-H520	0.35	0.292	0.372	0.344	0.335	0.324	0.201	0.152	0.214	0.202	0.161					0.225	0.192
NCI-H522	0.661	0.641	0.596	0.707	0.601				0.868	0.485	0.532	0.635	0.746	0.571	0.555		0.639
NCI-H661	0.763	0.976	0.718	0.786	0.665	0.349	0.262	0.33	0.64	0.353	0.141					0.413	0.691
NCI-H1299	0.948	0.995	1.04	0.99	0.959	0.563	0.256	0.0872								0.516	
NCI-H1563						0.684	0.731	0.3	0.458	0.44	0.514					0.59	0.392
NCI-H1623									0.442	0.214	0.22						0.391
NCI-H1648	1.02	1.06	0.614	0.91	0.835							0.562	0.768	0.434	0.466		
NCI-H1650	0.654	1.03	0.823	0.919	0.709	0.657	0.295	0.108	0.401	0.304	0.177					0.254	
NCI-H1703	0.439	0.456	0.407	0.452	0.248	0.308	0.381	0.221					0.124	0.128	0.181	0.236	
NCI-H2009	0.659	0.803	0.735	0.698	0.584	0.515	0.232	0.0786	0.287	0.182	0.116					0.342	0.284
NCI-H2023	0.457	0.478	0.44	0.416	0.526	0.204	0.113	0.0527	0.67	0.241	0.0645					0.148	0.595
NCI-H2228	0.6	0.858	0.642	0.638	0.654	0.562	0.399	0.395	0.481	0.318	0.246					0.408	0.443
NCI-H2342	0.387		0.44	0.428	0.358				0.278	0.299	0.377	0.516	0.514	0.489	0.462		0.304
SK-LU-1	0.449	0.397	0.531	0.46	0.44	0.447	0.322	0.247	0.19	0.207	0.173					0.444	0.188
SK-MES-1	0.643	0.775	0.762	0.737	0.702	0.319	0.254	0.257	0.284	0.22	0.186					0.336	0.293
SW 900	0.94	0.952	0.821	0.814	0.806				0.707	0.509	0.488		0.587	0.472	0.404		0.688
SW 1573	0.442	0.479	0.51	0.435	0.41	0.37	0.173	0.155	0.544	0.161	0.108					0.435	0.317
